Tests used:
Format in all cases: biochemical, Marinobacter hydrocarbonoclasticus DSM 8798
[1] = system: WS1; test: Coupled enzyme assay, WS substrate profile (TLC); set-up: key to WE formation (spot intensity of wax ester products on TLC), WS1, C10 / WE formation (spot intensity of wax ester products on TLC), WS1, C12 / WE formation (spot intensity of wax ester products on TLC), WS1, C14 / WE formation (spot intensity of wax ester products on TLC), WS1, C16 / WE formation (spot intensity of wax ester products on TLC), WS1, Phytol / WE formation (spot intensity of wax ester products on TLC), WS1, Farnesol: no activity (−); ranging from no activity (−) to most active (+++); ranging from no activity (−) to most active (+++); most active (+++); details: 12 h at 37° C., each substrate 250 μM; for WE formation (spot intensity of wax ester products on TLC), WS1, Farnesol: alcohol farnesol; for WE formation (spot intensity of wax ester products on TLC), WS1, Phytol: alcohol phytol; for WE formation (spot intensity of wax ester products on TLC), WS1, C10: fatty alcohol C10; for WE formation (spot intensity of wax ester products on TLC), WS1, C12: fatty alcohol C12; for WE formation (spot intensity of wax ester products on TLC), WS1, C14: fatty alcohol C14; for WE formation (spot intensity of wax ester products on TLC), WS1, C16: fatty alcohol C16
Method: (§1) Stock solutions of various substrates were prepared in 50 mM Tris-HCl buffer (pH 8) containing 1% gum arabic, 12.5 μg bovine serum albumin ml^−1, 0.1% taurocholate, and either 100 mM fatty acid, isoprenoid acid, fatty alcohol, or isoprenoid alcohol. Stock solutions were sonicated to disperse the substrates. Substrate profiles of the three WS were tested using coupled enzyme in vitro reactions in which the CoA synthetases Acs1 and Acs2 are added to synthesize the CoA-activated fatty acid phytanic acid substrates from corresponding acid precursors for the WS reactions. Assays were carried out in 500-μl reactions containing in 50 mM Tris-HCl buffer (pH 8.0), 12.5 μl of each acid, and alcohol substrate stock solution (final concentrations of each substrate of 250 μM), 10 mM MgCl2, 10 mM CoASH, 10 mM ATP, 5 mM TCEP, 0.1 U of inorganic pyrophosphatase, 0.25 μg of Acs1 and Acs2 CoA synthetase, and 0.5 μg of WS to be tested. Assays were incubated at 37° C. overnight before thin-layer chromatography (TLC) analysis of the reaction products.
(§2) In vitro WS assay samples were extracted with 500 μl of chloroformmethanol (1:1 [vol/vol]), and extracts were analyzed by TLC with Whatman normal phase silica gel 60 plates and developed using hexane-diethyl ether-acetic acid (90:10:1 [vol/vol/vol]). TLC plates were stained with either iodine vapor or anisaldehyde solution as described earlier (Jork et al., 1990. Thin-layer chromatography reagents and detection methods, vol. 1a. Physical and chemical detection methods: fundamentals, reagents. VHC, Weinheim, Germany). Palmitoyl palmitate and triolein were used as WE and TAG reference compounds, respectively.

[2] = biological target: T1, WS2 (Marinobacter nauticus, UniProt A3RE51); test: Coupled enzyme assay, WS substrate profile (TLC); set-up: key to WE formation (spot intensity of wax ester products on TLC), WS2, C16 / WE formation (spot intensity of wax ester products on TLC), WS2, Phytol / WE formation (spot intensity of wax ester products on TLC), WS2, Farnesol / WE formation (spot intensity of wax ester products on TLC), WS2, C10 / WE formation (spot intensity of wax ester products on TLC), WS2, C12 / WE formation (spot intensity of wax ester products on TLC), WS2, C14: no activity (−); ranging from no activity (−) to most active (+++); ranging from no activity (−) to most active (+++); most active (+++); details: 12 h at 37° C., each substrate 250 μM; for WE formation (spot intensity of wax ester products on TLC), WS2, Farnesol: alcohol farnesol; for WE formation (spot intensity of wax ester products on TLC), WS2, Phytol: alcohol phytol; for WE formation (spot intensity of wax ester products on TLC), WS2, C10: fatty alcohol C10; for WE formation (spot intensity of wax ester products on TLC), WS2, C12: fatty alcohol C12; for WE formation (spot intensity of wax ester products on TLC), WS2, C14: fatty alcohol C14; for WE formation (spot intensity of wax ester products on TLC), WS2, C16: fatty alcohol C16
Method: as §1, §2

[3] = biological target: T1, WS2; test: Kinetic WS assay, spectrophotometric (CoA release, DTNB); details: both substrates 1 mM; for Fatty/isoprenoid alcohol specificity of WS2: palmitoyl-CoA as acyl donor; for Acyl-CoA specificity of WS2: hexadecanol as acyl acceptor
Method: Assay reactions were preincubated at 37° C. for 5 min before the reactions were started by the addition of enzyme. Heat-denatured enzyme (99° C. for 15 min) was used as a negative control.
Acyl-CoA and fatty/isoprenoid alcohol specificity of WS2 was determined in the same manner as described for the kinetic WS assay with assumed saturating conditions containing both the fatty/isoprenoid alcohol and acyl-CoA substrates at a concentration of 1 mM. Acyl-CoA specificity was measured with hexadecanol as acyl acceptor, whereas palmitoyl-CoA was used as acyl donor to determine alcohol specificity.
A spectrophotometric assay was developed to determine the kinetic properties of WS1 and WS2. […] The specific activities of WS1, WS2, and Acinetobacter WS/DGAT were measured with palmitoyl-CoA and hexadecanol, palmitoyl-CoA and phytol, and phytanoyl-CoA and phytol. Phytanoyl-CoA for these assays was enzymatically synthesized from phytanic acid and CoA using the above-characterized isoprenoid/acyl-CoA synthetase Acs2.

T1 sequence (A3RE51 entry or part of it): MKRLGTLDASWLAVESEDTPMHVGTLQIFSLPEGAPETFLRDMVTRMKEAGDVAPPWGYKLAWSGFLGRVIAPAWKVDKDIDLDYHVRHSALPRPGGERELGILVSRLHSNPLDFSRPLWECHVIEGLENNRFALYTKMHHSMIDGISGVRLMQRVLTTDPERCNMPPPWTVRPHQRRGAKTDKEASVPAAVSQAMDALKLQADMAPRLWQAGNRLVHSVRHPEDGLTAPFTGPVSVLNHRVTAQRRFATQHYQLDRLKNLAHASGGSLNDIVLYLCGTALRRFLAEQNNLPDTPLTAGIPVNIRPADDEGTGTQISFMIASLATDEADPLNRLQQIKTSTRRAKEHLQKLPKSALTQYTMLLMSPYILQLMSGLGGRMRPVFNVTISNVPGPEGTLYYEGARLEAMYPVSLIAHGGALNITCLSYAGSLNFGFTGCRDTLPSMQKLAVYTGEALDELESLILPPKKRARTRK

CCCCCCCCCC(=O)O [C10]
WE formation (spot intensity of wax ester products on TLC), WS1, Farnesol [1]: +++
WE formation (spot intensity of wax ester products on TLC), WS1, Phytol [1]: −
WE formation (spot intensity of wax ester products on TLC), WS1, C10 [1]: +
WE formation (spot intensity of wax ester products on TLC), WS1, C12 [1]: +
WE formation (spot intensity of wax ester products on TLC), WS1, C14 [1]: −
WE formation (spot intensity of wax ester products on TLC), WS1, C16 [1]: +
WE formation (spot intensity of wax ester products on TLC), WS2, Farnesol [2]: +
WE formation (spot intensity of wax ester products on TLC), WS2, Phytol [2]: +
WE formation (spot intensity of wax ester products on TLC), WS2, C10 [2]: +
WE formation (spot intensity of wax ester products on TLC), WS2, C12 [2]: +
WE formation (spot intensity of wax ester products on TLC), WS2, C14 [2]: −
WE formation (spot intensity of wax ester products on TLC), WS2, C16 [2]: +

CCCCCCCCCCCC(=O)O [C12]
WE formation (spot intensity of wax ester products on TLC), WS1, Farnesol [1]: +++
WE formation (spot intensity of wax ester products on TLC), WS1, Phytol [1]: −
WE formation (spot intensity of wax ester products on TLC), WS1, C10 [1]: −
WE formation (spot intensity of wax ester products on TLC), WS1, C12 [1]: +
WE formation (spot intensity of wax ester products on TLC), WS1, C14 [1]: +
WE formation (spot intensity of wax ester products on TLC), WS1, C16 [1]: +
WE formation (spot intensity of wax ester products on TLC), WS2, Farnesol [2]: ++
WE formation (spot intensity of wax ester products on TLC), WS2, Phytol [2]: +
WE formation (spot intensity of wax ester products on TLC), WS2, C10 [2]: +
WE formation (spot intensity of wax ester products on TLC), WS2, C12 [2]: +
WE formation (spot intensity of wax ester products on TLC), WS2, C14 [2]: +
WE formation (spot intensity of wax ester products on TLC), WS2, C16 [2]: +

CCCCCCCCCCCCCC(=O)O [C14]
WE formation (spot intensity of wax ester products on TLC), WS1, Farnesol [1]: ++
WE formation (spot intensity of wax ester products on TLC), WS1, Phytol [1]: +
WE formation (spot intensity of wax ester products on TLC), WS1, C10 [1]: −
WE formation (spot intensity of wax ester products on TLC), WS1, C12 [1]: −
WE formation (spot intensity of wax ester products on TLC), WS1, C14 [1]: ++
WE formation (spot intensity of wax ester products on TLC), WS1, C16 [1]: +
WE formation (spot intensity of wax ester products on TLC), WS2, Farnesol [2]: ++
WE formation (spot intensity of wax ester products on TLC), WS2, Phytol [2]: +
WE formation (spot intensity of wax ester products on TLC), WS2, C10 [2]: ++
WE formation (spot intensity of wax ester products on TLC), WS2, C12 [2]: +
WE formation (spot intensity of wax ester products on TLC), WS2, C14 [2]: ++
WE formation (spot intensity of wax ester products on TLC), WS2, C16 [2]: +

CCCCCC/C=C\CCCCCCCC(=O)O [C16Δcis9]
WE formation (spot intensity of wax ester products on TLC), WS1, Farnesol [1]: ++
WE formation (spot intensity of wax ester products on TLC), WS1, Phytol [1]: +++
WE formation (spot intensity of wax ester products on TLC), WS1, C10 [1]: +
WE formation (spot intensity of wax ester products on TLC), WS1, C12 [1]: ++
WE formation (spot intensity of wax ester products on TLC), WS1, C14 [1]: ++
WE formation (spot intensity of wax ester products on TLC), WS1, C16 [1]: ++
WE formation (spot intensity of wax ester products on TLC), WS2, Farnesol [2]: ++
WE formation (spot intensity of wax ester products on TLC), WS2, Phytol [2]: ++
WE formation (spot intensity of wax ester products on TLC), WS2, C10 [2]: ++
WE formation (spot intensity of wax ester products on TLC), WS2, C12 [2]: ++
WE formation (spot intensity of wax ester products on TLC), WS2, C14 [2]: +++
WE formation (spot intensity of wax ester products on TLC), WS2, C16 [2]: +++

CCCCCCCCCCCCCCCCCC(=O)O [C18]
WE formation (spot intensity of wax ester products on TLC), WS1, Farnesol [1]: ++
WE formation (spot intensity of wax ester products on TLC), WS1, Phytol [1]: ++
WE formation (spot intensity of wax ester products on TLC), WS1, C10 [1]: ++
WE formation (spot intensity of wax ester products on TLC), WS1, C12 [1]: +
WE formation (spot intensity of wax ester products on TLC), WS1, C14 [1]: ++
WE formation (spot intensity of wax ester products on TLC), WS1, C16 [1]: +
WE formation (spot intensity of wax ester products on TLC), WS2, Farnesol [2]: ++
WE formation (spot intensity of wax ester products on TLC), WS2, Phytol [2]: +
WE formation (spot intensity of wax ester products on TLC), WS2, C10 [2]: +
WE formation (spot intensity of wax ester products on TLC), WS2, C12 [2]: +
WE formation (spot intensity of wax ester products on TLC), WS2, C14 [2]: +
WE formation (spot intensity of wax ester products on TLC), WS2, C16 [2]: +

CC/C=C\C/C=C\C/C=C\CCCCCCCC(=O)O [C18Δcis9, 12, 15]
WE formation (spot intensity of wax ester products on TLC), WS1, Farnesol [1]: +
WE formation (spot intensity of wax ester products on TLC), WS1, Phytol [1]: −
WE formation (spot intensity of wax ester products on TLC), WS1, C10 [1]: −
WE formation (spot intensity of wax ester products on TLC), WS1, C12 [1]: +
WE formation (spot intensity of wax ester products on TLC), WS1, C14 [1]: +
WE formation (spot intensity of wax ester products on TLC), WS1, C16 [1]: −
WE formation (spot intensity of wax ester products on TLC), WS2, Farnesol [2]: −
WE formation (spot intensity of wax ester products on TLC), WS2, Phytol [2]: +
WE formation (spot intensity of wax ester products on TLC), WS2, C10 [2]: +
WE formation (spot intensity of wax ester products on TLC), WS2, C12 [2]: +
WE formation (spot intensity of wax ester products on TLC), WS2, C14 [2]: +
WE formation (spot intensity of wax ester products on TLC), WS2, C16 [2]: +

CCCCCCCCCCCCCCCCCCCC(=O)O [C20]
WE formation (spot intensity of wax ester products on TLC), WS1, Farnesol [1]: ++
WE formation (spot intensity of wax ester products on TLC), WS1, Phytol [1]: ++
WE formation (spot intensity of wax ester products on TLC), WS1, C10 [1]: +
WE formation (spot intensity of wax ester products on TLC), WS1, C12 [1]: +
WE formation (spot intensity of wax ester products on TLC), WS1, C14 [1]: +
WE formation (spot intensity of wax ester products on TLC), WS1, C16 [1]: +
WE formation (spot intensity of wax ester products on TLC), WS2, Farnesol [2]: +
WE formation (spot intensity of wax ester products on TLC), WS2, Phytol [2]: +
WE formation (spot intensity of wax ester products on TLC), WS2, C10 [2]: −
WE formation (spot intensity of wax ester products on TLC), WS2, C12 [2]: −
WE formation (spot intensity of wax ester products on TLC), WS2, C14 [2]: +
WE formation (spot intensity of wax ester products on TLC), WS2, C16 [2]: +

CCCCCCCCCCO [Decanol]
Fatty/isoprenoid alcohol specificity of WS2 [3]: more readily taken up for WE synthesis than the equivalent-chain-length acyl-CoA carbon chain

CCCCCCCCCCCCCCCCCCCC(=O)SCCNC(=O)CCNC(=O)[C@H](O)C(C)(C)COP(=O)(O)OP(=O)(O)OC[C@H]1O[C@@H](n2cnc3c(N)ncnc32)[C@H](O)[C@@H]1OP(=O)(O)O [arachidoyl-CoA, arachidoyl-CoA (C20:0)]
Acyl-CoA specificity of WS2 [3]: readily accepted

CCCCCCCCCCCCO [dodecanol]
Fatty/isoprenoid alcohol specificity of WS2 [3]: more readily taken up for WE synthesis than the equivalent-chain-length acyl-CoA carbon chain

CCCCCCCCCCCC(=O)SCCNC(=O)CCNC(=O)[C@H](O)C(C)(C)COP(=O)(O)OP(=O)(O)OC[C@H]1O[C@@H](n2cnc3c(N)ncnc32)[C@H](O)[C@@H]1OP(=O)(O)O [lauroyl-CoA, lauroyl-CoA (C12)]
Acyl-CoA specificity of WS2 [3]: not accepted at all

CC/C=C\C/C=C\C/C=C\CCCCCCCC(=O)SCCNC(=O)CCNC(=O)[C@H](O)C(C)(C)COP(=O)(O)OP(=O)(O)OC[C@H]1O[C@@H](n2cnc3c(N)ncnc32)[C@H](O)[C@@H]1OP(=O)(O)O [linolenoyl-CoA, linolenoyl-CoA (C18:3)]
Acyl-CoA specificity of WS2 [3]: readily accepted

CCCCCCCCCCCCCC(=O)SCCNC(=O)CCNC(=O)[C@H](O)C(C)(C)COP(=O)(O)OP(=O)(O)OC[C@H]1O[C@@H](n2cnc3c(N)ncnc32)[C@H](O)[C@@H]1OP(=O)(O)O [myristoyl-CoA, myristoyl-CoA (C14:0)]
Acyl-CoA specificity of WS2 [3]: poorly converted

CCCCCCCCCCCCCCCCCC(=O)SCCNC(=O)CCNC(=O)[C@H](O)C(C)(C)COP(=O)(O)OP(=O)(O)OC[C@H]1O[C@@H](n2cnc3c(N)ncnc32)[C@H](O)[C@@H]1OP(=O)(O)O [stearoyl-CoA, stearoyl-CoA (C18:0)]
Acyl-CoA specificity of WS2 [3]: readily accepted
